The values below come from ChEMBL document CHEMBL1131012, “Heteroaryl analogues of AMPA. 2. Synthesis, absolute stereochemistry, photochemistry, and structure-activity relationships” (J Med Chem, 1998).

In test [1] the target is Glutamate receptor ionotropic, kainate. Put plainly: Ability to inhibit the binding of [3H]-kainic acid radioligand to Ionotropic glutamate receptor kainate in rat brain membranes. It counts as cell membranes.
A further test concerns the target Glutamate NMDA receptor. Put plainly: Ability to inhibit the binding of [3H]CPP radioligand to N-methyl-D-aspartate glutamate receptor in rat brain membranes. It counts as cell membranes.
Test [2] addresses T1, Glutamate receptor ionotropic, AMPA (Rattus norvegicus, UniProt P19490+P19491+P19492+P19493).
Description: Agonist effect for Ionotropic glutamate receptor AMPA was determined from in vitro electrophysiology studies using rat cortical wedge preparation.
Test [3] deals with T1, Glutamate receptor ionotropic, AMPA. The source holds these as a separate data set.
Description: Ability to inhibit the binding of [3H]AMPA radioligand to Ionotropic glutamate receptor AMPA in rat brain membranes.

The structures appear in SMILES notation.

With `NC(Cc1c(O)noc1-c1nccs1)C(=O)O` (stereo unspecified), the half-inhibitory concentration (IC50) in test [1] is 4.9 µM; at Glutamate NMDA receptor, greater than 100 µM; in test [3] it was 0.094 µM. Also, the midpoint of the response in test [2], the EC50, lay at 2.3 µM.
Turning to `NC(Cc1c(O)noc1-c1cccnc1)C(=O)O` (stereo unspecified), the IC50 (in test [1]; on Glutamate NMDA receptor; in test [3]) was greater than 100 µM in each case. Besides, the concentration for a half-maximal effect (EC50) in test [2] is greater than 1000 µM.
As for `N[C@H](Cc1c(O)noc1-c1ccccn1)C(=O)O`, the IC50 (in test [1]; at Glutamate NMDA receptor; in test [3]) was greater than 100 µM throughout. Moreover, the EC50 in test [2] was greater than 100 µM.
In the case of `N[C@H](Cc1c(O)noc1-c1ccccc1)C(=O)O`, the concentration giving a half-maximal response (EC50) in test [2] is greater than 100 µM.
In the case of `NC(Cc1c(O)noc1-c1ccc(Br)o1)C(=O)O` (stereo unspecified), the results for the IC50 (in test [1]; at Glutamate NMDA receptor; in test [3]) were greater than 100 µM, greater than 100 µM and 12 µM, respectively. In test [2], this molecule came in with an EC50 of 160 µM.
As to `Cc1cccc(-c2onc(O)c2CC(N)C(=O)O)n1` (stereo unspecified), the IC50 (in test [1]; at Glutamate NMDA receptor; in test [3]) was greater than 100 µM each time. Moreover, in test [2], the EC50 is greater than 1000 µM.
For the molecule `NC(Cc1c(O)noc1-c1ccc2ccccc2n1)C(=O)O` (stereo unspecified), the 50% inhibitory concentration (IC50) (in test [1]; at Glutamate NMDA receptor; in test [3]) was greater than 100 µM throughout. In test [2], this molecule registered an EC50 greater than 1000 µM.
On to `N[C@@H](Cc1c(O)noc1-c1ccccn1)C(=O)O`, for which the 50% inhibitory concentration (IC50) was greater than 100 µM in test [1], greater than 100 µM at Glutamate NMDA receptor and 0.19 µM in test [3]. This molecule also came in with a concentration for a half-maximal effect (EC50) in test [2] of 4.5 µM.
`N[C@@H](Cc1c(-c2ccccc2)o[nH]c1=O)C(=O)O`: in test [3], it took 5.5 µM to reach half-maximal inhibition (IC50).
Turning to `N[C@H](Cc1c(O)noc1-c1ccco1)C(=O)O`, the IC50 was greater than 100 µM in test [1], greater than 100 µM on Glutamate NMDA receptor and 100 µM in test [3]. In test [2], this molecule showed an EC50 greater than 1000 µM.
`NC(Cc1c(O)noc1-c1ccccn1)C(=O)O` (stereo unspecified): the IC50 is greater than 100 µM in test [1], greater than 100 µM on Glutamate NMDA receptor and 0.57 µM in test [3]. For the same molecule, the response in test [2] was half-maximal at 7.4 µM (EC50).
For the molecule `NC(Cc1c(O)noc1-c1ccncc1)C(=O)O` (stereo unspecified), the IC50 was greater than 100 µM in test [1], greater than 100 µM at Glutamate NMDA receptor and 5.5 µM in test [3]. The molecule also had an EC50 in test [2] of 96 µM.
Take `NC(Cc1c(O)noc1-c1ccco1)C(=O)O` (stereo unspecified): the IC50 is greater than 100 µM in test [1], greater than 100 µM on Glutamate NMDA receptor and 0.15 µM in test [3]. In addition, the 50% effective concentration (EC50) in test [2] is 1.7 µM.
As for `N[C@@H](Cc1c(O)noc1-c1ccco1)C(=O)O`, the concentration for half-maximal inhibition (IC50) in test [1] was greater than 100 µM; at Glutamate NMDA receptor it was greater than 100 µM; in test [3], 0.11 µM. The molecule further had an EC50 in test [2] of 0.71 µM.
In turn, `C=C(C)[C@H]1CN[C@H](C(=O)O)[C@H]1CC(=O)O` [KAINIC ACID] showed an IC50 at Glutamate NMDA receptor greater than 100 µM.

As usually defined, the IC50 is the midpoint of a concentration-inhibition curve. Read a high IC50 as a need for much substance. By EC50 is commonly meant the concentration needed to bring the measured effect to its halfway point.
